In patent US20240415804A1, “METHOD OF TREATING PANCREATIC CANCER” (University of South Florida, priority 2022, published 2024):

Legend:
miR-155 = miR-155 gene expression in tumors of HPC mice; type: in vivo, mouse; conditions: API 25 mg/kg IP 3 times per week for 3-4 weeks, vs vehicle
Protocol: Earlier studies have shown the anti-tumor activity of API in pre-clinical experimental models of cancer^41, 62-68. The inventors have reported that API increased survival and reduced tumor growth in a heterotopic (H) mouse model of PC (HPC)^55. To investigate if API targets miR-155 and regulates SHIP-1 in the TME of an HPC mouse model, HPC mice were treated with API at a dose of 25 mg/kg (IP) 3 times per week for 3-4 weeks. […] All female C57BL/6 mice (6-8 weeks of age) described in this study were purchased from Envigo (Indianapolis, IN, USA) and were acclimatize for one week in a pathogen-free animal facility (University of South Florida (USF) vivarium) before injections with PC cells. To generate heterotopic pancreatic cancer (HPC) models, mice were subcutaneously injected with 1.5×10^5 murine Panc02 (HPC mice) or 5×10^6 murine UN-KC-6141 cells (KC-HPC mice), in sterile 1× phosphate buffer saline (PBS), in the lower ventral abdomen, while control (CTRL) mice received sterile 1×PBS. […] Relative expression of miR-155 was calculated using the comparative […] method normalized to a mouse endogenous control gene snoRNA202 and human endogenous control gene U6 (Assay IDs: 001232 and 001093).

[1] = system: CD8+ T cells (CD3+CD8+CD4−); experiment: Flow cytometry of intra-tumoral CD8+ T cells and CD40L in KC-HPC mice; type: in vivo, mouse; conditions: API-treated vs vehicle-treated KC-HPC mice
Protocol: The inventors then assessed the expression of CD40 (a T cell co-stimulation marker) on M1 TAM (gated as MHC-II^+ and CD206) within the tumor from KC-HPC vs. KC-HPC-API mice. […] The femur and tibia were cut at the pelvic-hip joint and muscle was removed. The femurs and tibias were cut at the ends and flushed with a 30-gauge needle and 10 cc syringe filled with completed RPMI media until bone was white onto a petri dish. Pelleted bone marrow (BM) cells were treated with Red Blood Cell (RBC) lysis buffer (eBioscience, Waltham, MA, USA), according to the manufacturer's instructions, and then filtered through a […] nylon mesh cell strainer in 1×PBS. All pancreatic tumors were manually cut into ˜1-2 mm^3 fragments with a sterile razor blade and then enzymatically digested with Collagenase, type IV (Sigma-Aldrich), DNase, type IV (Sigma-Aldrich) and Hyaluronidase, Type V (Sigma-Aldrich) in Hank's Balanced Salt Solution for 1 h, spun down and washed as described in previous studies^61. Digested pancreatic tumor samples were treated with RBC lysis buffer and then filtered through a […] nylon mesh cell strainer in 1×PBS. Bone marrow and digested pancreatic tumor single cell suspensions were counted with a hemocytometer and then resuspended in 3% FBS/PBS. BM and digested pancreatic tumor cells (1×10^6) were Fc Blocked (anti-mouse CD16/CD32) and then surface stained for 30 min on ice protected from light with fluorescent anti-mouse antibodies including, CD11b-APC, Ly6C-PE/Cy7, Ly6G-PerCP, F4/80-BV650, MHC—II-BV605, CD206-FITC and CD40-PE/Cy5 along with isotype control antibodies (Biolegend, San Diego, CA, USA) to detect MDSC and macrophage subsets. Digested pancreatic tumor cells (1×10^6) were also Fc Blocked and then surface stained with fluorescent anti-mouse antibodies including CD3-FITC, CD8-PercP/Cy5.5, CD4-APC/Cy7, and CD40L-APC along with isotype control antibodies (Biolegend) to detect CD8^+ T cells. Subsequently, all samples were fixed with 2% paraformaldehyde for 15 min on ice protected from light. […]

SHIP-1 = conditions: API-treated OPC mice, previous findings (ref 12); cited from earlier work

In the case of `O=c1cc(-c2ccc(O)cc2)oc2cc(O)cc(O)c12` [API, 40,5,7-Trihydroxyflavone, 5,7-Dihydroxy-2-(4-hydroxyphenyl)-4-benzopyrone], the “miR-155 gene expression in tumor” value (miR-155) is reported as “significantly reduced”, the “CD40L expression on intra-tumoral CD8+ T cells” value [1] is reported as “no significant changes” and the “intra-tumoral CD8+ T cells (flow cytometric analysis)” value [1] is reported as “significant increase”. For the same molecule, the “intra-tumoral CD8+ T cells absolute cell numbers” value [1] was “significant increase”, the “SHIP-1 gene expression in pancreatic tumor” value (SHIP-1) was “increased” and the “SHIP-1 protein expression in pancreatic tumor” value (SHIP-1) was “increased”.
